Common to all, as to type: biochemical
The target in assay [1] is JNK2 (Homo sapiens, UniProt P45984). The experiment in a line: JNK2 kinase DELFIA (phosphorylation of biotinylated GST-ATF2). The following applies: final ATP 4 uM, reported as range for a group. On the procedure:
(§1) Before initiation of kinase reactions, compounds were pre-incubated with the enzyme for 10 minutes. Pre-incubation reactions contained 50 mM HEPES pH 7.3, 10 mM MgCl2, 1 mM DTT, 75 mM NaCl, 1 mM EDTA, 1 mM EGTA, 0.01% CHAPS, 2 nM JNK1, 6 ug/mL biotinylated GST-ATF2, 0.1 mg/ml BSA, 5% DMSO and 0-100 μM compound in a total volume of 40 μL. After a 10 minute room temperature pre-incubation, 10 μL of 35 μM ATP was added to start the reaction (final concentration of ATP=7 uM). Reactions were incubated at room temperature for 30 minutes. A small aliquot (10 uL) was taken and quenched by adding into 190 uL of DELFIA Assay buffer containing 100 mM EDTA. The amount of phosphate transferred to biotinylated GST-ATF2 was measured using the Dissociation Enhanced Lanthanide Fluorescence Immuno-assay (DELFIA) from Perkin Elmer according to manufacturers protocol. Briefly, biotinylated GST-ATF2 was captured on streptavidin coated plates for 1 hour, washed twice, then incubated for 1 hour with a 1:1000 dilution of rabbit-anti-phospho-ATF2 antibody and a 1:3500 dilution of Europium-labeled anti-rabbit secondary antibody. Free antibody was removed with six washes, Europium was dissociated from the antibody, and Europium fluorescence was measured using an excitation wavelength of 340 nm and an emission wavelength of 615 nm. JNK2 and JNK3 kinase reactions were carried out similarly, with the exception that the final concentration of ATP was 4 uM and 2 uM, respectively.

Assay [2] concerns the target JNK3 (Homo sapiens, UniProt P53779). The experiment in a line: JNK3 kinase DELFIA (phosphorylation of biotinylated GST-ATF2). The note with it: final ATP 2 uM. On the procedure: as §1
Assay [3] addresses JNK1 (Homo sapiens, UniProt P45983). Briefly: JNK1 kinase DELFIA (phosphorylation of biotinylated GST-ATF2). On the procedure: as §1
Setting [4] is: DELFIA, 2 nM JNK1, final ATP 7 uM, 10 min pre-incubation, reported as range for a group.

Where “and” joins values, the source holds several entries; their conditions need not be identical. Equal values may be shown once. Read-outs that look alike come from different tables or passages of the source.

Chain of JNK1 (P45983 whole entry, species assumed): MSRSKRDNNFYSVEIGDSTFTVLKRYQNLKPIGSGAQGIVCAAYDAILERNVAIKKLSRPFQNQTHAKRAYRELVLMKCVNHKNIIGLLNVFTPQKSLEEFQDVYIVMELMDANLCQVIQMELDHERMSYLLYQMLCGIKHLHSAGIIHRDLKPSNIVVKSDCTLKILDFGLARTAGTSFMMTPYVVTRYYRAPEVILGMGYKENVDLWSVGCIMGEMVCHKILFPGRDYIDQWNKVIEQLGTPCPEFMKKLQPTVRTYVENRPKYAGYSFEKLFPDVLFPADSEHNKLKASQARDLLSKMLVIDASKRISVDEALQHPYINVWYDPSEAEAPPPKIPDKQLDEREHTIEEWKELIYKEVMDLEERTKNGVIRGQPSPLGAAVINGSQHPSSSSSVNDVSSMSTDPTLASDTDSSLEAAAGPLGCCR
Chain of JNK2 (P45984 whole entry, species assumed): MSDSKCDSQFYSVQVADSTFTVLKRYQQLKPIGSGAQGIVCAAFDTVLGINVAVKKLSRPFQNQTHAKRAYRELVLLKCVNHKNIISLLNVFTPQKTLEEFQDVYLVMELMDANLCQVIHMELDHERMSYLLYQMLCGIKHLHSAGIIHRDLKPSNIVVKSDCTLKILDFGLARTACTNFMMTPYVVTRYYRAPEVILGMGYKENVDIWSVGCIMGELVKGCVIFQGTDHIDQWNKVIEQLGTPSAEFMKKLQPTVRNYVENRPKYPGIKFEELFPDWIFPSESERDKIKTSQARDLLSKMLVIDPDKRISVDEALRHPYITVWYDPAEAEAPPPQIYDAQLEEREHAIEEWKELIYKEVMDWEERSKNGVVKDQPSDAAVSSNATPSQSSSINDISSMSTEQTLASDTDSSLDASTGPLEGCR
Chain of JNK3 (P53779 whole entry, species assumed): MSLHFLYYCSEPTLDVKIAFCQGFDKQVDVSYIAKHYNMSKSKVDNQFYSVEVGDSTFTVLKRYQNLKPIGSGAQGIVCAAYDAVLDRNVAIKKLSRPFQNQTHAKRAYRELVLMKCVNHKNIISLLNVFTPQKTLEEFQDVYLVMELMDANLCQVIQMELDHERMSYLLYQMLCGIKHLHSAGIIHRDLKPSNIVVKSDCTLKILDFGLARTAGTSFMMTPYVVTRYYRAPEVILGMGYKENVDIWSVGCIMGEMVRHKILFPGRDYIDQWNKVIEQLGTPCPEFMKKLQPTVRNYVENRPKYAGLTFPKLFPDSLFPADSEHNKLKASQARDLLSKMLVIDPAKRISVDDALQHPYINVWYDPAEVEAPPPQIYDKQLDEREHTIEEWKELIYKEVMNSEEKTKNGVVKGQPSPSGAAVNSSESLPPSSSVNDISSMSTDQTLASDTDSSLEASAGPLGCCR

For orientation: IC50 means the concentration needed to halve the response being measured. Turning to `CC[C@@H](CO)NC(=O)c1c(-c2ccsc2)nc2c(C(=O)NCc3ccc4nc(N)sc4c3)cccn12` [Compound 13], the IC50 in assay [1] lay in the range of 201 to 666 nM; in assay [2] it was 54 to 98 nM.

`CC(C)C[C@@H](CO)NC(=O)c1c(-c2ccsc2)nc2c(C(=O)NCc3ccc4nc(N)sc4c3)cccn12` [Compound 14]: the IC50 in assay [3] (setting [4]) is 6 to 100 nM and 6 to 20 nM; in assay [1] it was 4 to 46 nM; in assay [2], 9 to 50 nM.

Regarding `Nc1nc2ccc(CNC(=O)c3cccn4c(C(=O)NCC5(O)CCCCC5)c(-c5ccsc5)nc34)cc2s1` [Compound 15], the IC50 lay within 107 to 173 nM in assay [1] and 118 to 174 nM in assay [2].

On to `Nc1nc2ccc(CNC(=O)c3cccn4c(C(=O)N[C@H](CO)c5ccccc5)c(-c5ccsc5)nc34)cc2s1` [Compound 16], for which the concentration for half-maximal inhibition (IC50) in assay [3] (setting [4]) is 6 to 100 nM and 6 to 20 nM; in assay [3] (read-out: JNK 1 IC50) it was 19 nM; in assay [1], 4 to 46 nM; in assay [2], 9 to 50 nM.

As for `CC(C)(C)[C@@H](CO)NC(=O)c1c(-c2ccsc2)nc2c(C(=O)NCc3ccc4nc(N)sc4c3)cccn12` [Compound 17], the IC50 lay within 6 to 100 nM in assay [3] (setting [4]), 4 to 46 nM in assay [1] and 9 to 50 nM in assay [2].

As for `C[C@@H](CO)NC(=O)c1c(-c2ccsc2)nc2c(C(=O)NCc3ccc4nc(N)sc4c3)cccn12` [Compound 22], the IC50 in assay [3] (setting [4]) was 6 to 100 nM; in assay [1], 52 to 94 nM; in assay [2] it was 9 to 50 nM.

Regarding `C[C@H](CO)NC(=O)c1c(-c2ccsc2)nc2c(C(=O)NCc3ccc4nc(N)sc4c3)cccn12` [Compound 23], the 50% inhibitory concentration (IC50) in assay [1] was in the range of 107 to 173 nM; in assay [2], 118 to 174 nM.

`CC(C)CNC(=O)c1c(-c2ccsc2)nc2c(C(=O)NCc3ccc4nc(N)sc4c3)cccn12` [Compound 38]: the values for the IC50 in assay [1] and in assay [2] were 201 to 666 nM and 54 to 98 nM, respectively.

As to `C[C@@H](NC(=O)c1c(-c2ccsc2)nc2c(C(=O)NCc3ccc4nc(N)sc4c3)cccn12)c1ccccc1` [Compound 42], the IC50 in assay [1] is 52 to 94 nM; in assay [2] it was 118 to 174 nM.

Regarding `Nc1nc2ccc(CNC(=O)c3cccn4c(C(=O)NC[C@H]5CCCCC[C@H]5O)c(-c5ccsc5)nc34)cc2s1` [Compound 48], the values for the IC50 in assay [3] (setting [4]), in assay [1] and in assay [2] were 6 to 100 nM, 107 to 173 nM and 209 to 479 nM, respectively.

In the case of `Nc1nc2ccc(CNC(=O)c3cccn4c(C(=O)N[C@H]5CC[C@H](O)CC5)c(-c5ccsc5)nc34)cc2s1` [Compound 56], the IC50 in assay [3] (setting [4]) was in the range of 6 to 100 nM; in assay [1] it was 107 to 173 nM; in assay [2], 118 to 174 nM.

As to `C[C@@H](NC(=O)c1c(-c2ccsc2)nc2c(C(=O)NCc3ccc4nc(N)sc4c3)cccn12)[C@@H](O)c1ccccc1` [Compound 62], the figures for the IC50 in assay [1] and in assay [2] were 107 to 173 nM and 54 to 98 nM, respectively.

For the compound `CS(=O)(=O)c1ccc(CNC(=O)c2cccn3c(C(=O)N[C@H](CO)c4ccccc4)c(-c4ccsc4)nc23)cc1` [Compound 93], the IC50 in assay [3] (setting [4]) is 6 to 100 nM; in assay [1] it was 52 to 94 nM; in assay [2], 54 to 98 nM.

In the case of `CC(C)C[C@@H](CO)NC(=O)c1c(-c2ccsc2)nc2c(C(=O)NCc3ccc4nc[nH]c4c3)cccn12` [Compound 111], the values for the half-inhibitory concentration (IC50) in assay [1] and in assay [2] were 52 to 94 nM and 54 to 98 nM, respectively.

Consider `Cc1nc2cc(CNC(=O)c3cccn4c(C(=O)N[C@H](CO)CC(C)C)c(-c5ccsc5)nc34)ccc2[nH]1` [Compound 112], for which the 50% inhibitory concentration (IC50) is 6 to 20 nM and 6 to 10 nM in assay [3] (setting [4]); 8 nM in assay [3] (read-out: JNK 1 IC50); 4 to 46 nM in assay [1]; 9 to 50 nM in assay [2].

Take `CC(C)C[C@@H](CO)NC(=O)c1c(-c2ccsc2)nc2c(C(=O)NCc3ccc4ncsc4c3)cccn12` [Compound 113]: the IC50 in assay [1] was 52 to 94 nM; in assay [2], 54 to 98 nM.

On to `CC(C)C[C@@H](CO)NC(=O)c1c(-c2ccsc2)nc2c(C(=O)NCc3ccc4nc(C(C)C)[nH]c4c3)cccn12` [Compound 114], for which the IC50 fell in the range of 6 to 20 nM in assay [3] (setting [4]), 4 to 46 nM in assay [1] and 9 to 50 nM in assay [2].

As to `CC(C)C[C@@H](CO)NC(=O)c1c(-c2ccsc2)nc2c(C(=O)NCc3ccc4ncccc4c3)cccn12` [Compound 115], the IC50 in assay [1] is 4 to 46 nM; in assay [2] it was 9 to 50 nM.

On to `Cc1nc2ccc(CNC(=O)c3cccn4c(C(=O)N[C@H](CO)CC(C)C)c(-c5ccsc5)nc34)cc2s1` [Compound 130], for which the concentration for half-maximal inhibition (IC50) lay in the range of 6 to 100 nM in assay [3] (setting [4]), 4 to 46 nM in assay [1] and 9 to 50 nM in assay [2].

`CNc1nc2ccc(CNC(=O)c3cccn4c(C(=O)N[C@H](CO)CC(C)C)c(-c5ccsc5)nc34)cc2s1` [Compound 155]: the IC50 in assay [1] lay within 4 to 46 nM; in assay [2], 9 to 50 nM.

As for `CC[C@H](CO)NC(=O)c1c(-c2ccsc2)nc2c(C(=O)N[C@@H](C)c3ccc(S(C)(=O)=O)cc3)cccn12` [Compound 170], the concentration for half-maximal inhibition (IC50) lay within 1070 to 11500 nM in assay [1] and 118 to 174 nM in assay [2].

Take `CC[C@@H](CO)NC(=O)c1c(-c2ccsc2)nc2c(C(=O)NCc3ccc(-n4nccc4C(C)C)cc3)cccn12` [Compound 178]: the IC50 in assay [1] was 201 to 666 nM; in assay [2], 209 to 479 nM.

For `CC[C@@H](CO)NC(=O)c1c(-c2ccsc2)nc2c(C(=O)NCc3ccc(Cl)nc3)cccn12` [Compound 181], the results for the half-inhibitory concentration (IC50) in assay [1] and in assay [2] were 201 to 666 nM and 118 to 174 nM, respectively.

For `CC(C)C[C@H](CO)NC(=O)c1c(-c2ccsc2)nc2c(C(=O)NCc3ccc(S(C)(=O)=O)cc3)cccn12` [Compound 205], the figures for the IC50 in assay [1] and in assay [2] were 52 to 94 nM and 54 to 98 nM, respectively.

In the case of `CC(C)C[C@@H](CO)NC(=O)c1c(-c2ccsc2)nc2c(C(=O)NCc3ccc(N4CCCC4=O)cc3)cccn12` [Compound 206], the IC50 in assay [1] lay in the range of 52 to 94 nM; in assay [2], 54 to 98 nM.

`CC(C)C[C@@H](CO)NC(=O)c1c(-c2ccsc2)nc2c(C(=O)NCc3ccc(-c4ccccn4)s3)cccn12` [Compound 215]: the IC50 in assay [1] lay within 52 to 94 nM; in assay [2], 9 to 50 nM.

Turning to `CC(C)C[C@@H](CO)NC(=O)c1c(-c2ccsc2)nc2c(C(=O)NCc3cnn(-c4ccccc4)c3)cccn12` [Compound 216], the IC50 in assay [3] (setting [4]) fell in the range of 6 to 20 nM; in assay [1] it was 4 to 46 nM; in assay [2], 9 to 50 nM.

As for `Cc1cccc(-n2cc(CNC(=O)c3cccn4c(C(=O)N[C@H](CO)CC(C)C)c(-c5ccsc5)nc34)cn2)c1` [Compound 218], the IC50 was 6 to 20 nM in assay [3] (setting [4]), 4 to 46 nM in assay [1] and 9 to 50 nM in assay [2].

For the compound `Cc1ccc(-n2cc(CNC(=O)c3cccn4c(C(=O)N[C@H](CO)CC(C)C)c(-c5ccsc5)nc34)cn2)cc1` [Compound 219], the IC50 in assay [3] (setting [4]) was 6 to 20 nM; in assay [1] it was 4 to 46 nM; in assay [2], 9 to 50 nM.

Regarding `CC(C)C[C@@H](CO)NC(=O)c1c(-c2ccsc2)nc2c(C(=O)NCC3CCN(C(=O)c4cccnc4)CC3)cccn12` [Compound 230], the IC50 in assay [1] is 201 to 666 nM; in assay [2] it was 209 to 479 nM.

For the compound `CC(C)C[C@H](CO)NC(=O)c1c(-c2ccsc2)nc2c(C(=O)NCc3ccc(N4CCCC4)nc3)cccn12` [Compound 291], the IC50 in assay [3] (setting [4]) lay in the range of 6 to 100 nM; in assay [1], 107 to 173 nM; in assay [2], 54 to 98 nM.

Take `CC(C)C[C@@H](CO)NC(=O)c1c(-c2ccsc2)nc2c(C(=O)NCc3ccnc(N4CCCC4)c3)cccn12` [Compound 296]: the IC50 was 6 to 100 nM and 6 to 20 nM in assay [3] (setting [4]); 4 to 46 nM in assay [1]; 9 to 50 nM in assay [2].

Regarding `CC(C)C[C@@H](CO)NC(=O)c1c(-c2ccsc2)nc2c(C(=O)NCc3ccc(N4CCN(C)CC4)nc3)cccn12` [Compound 299], the IC50 lay within 6 to 100 nM in assay [3] (setting [4]), 4 to 46 nM in assay [1] and 9 to 50 nM in assay [2].

Regarding `CC(C)C[C@@H](CO)NC(=O)c1c(-c2ccsc2)nc2c(C(=O)NCc3ccc(N4CCOCC4)nc3)cccn12` [Compound 300], the IC50 in assay [3] (setting [4]) is 6 to 100 nM and 6 to 20 nM; in assay [1], 4 to 46 nM; in assay [2], 9 to 50 nM.

Regarding `CC(C)C[C@@H](CO)NC(=O)c1c(-c2ccsc2)nc2c(C(=O)NCc3ccc(N4CCCCC4)nc3)cccn12` [Compound 301], the IC50 was 6 to 100 nM in assay [3] (setting [4]), 4 to 46 nM in assay [1] and 9 to 50 nM in assay [2].

With `CC(C)C[C@@H](CO)NC(=O)c1c(-c2ccsc2)nc2c(C(=O)NCc3ccc(-c4cccnc4)nc3)cccn12` [Compound 306], the IC50 in assay [3] (setting [4]) was 6 to 100 nM and 6 to 20 nM; in assay [1], 4 to 46 nM; in assay [2], 9 to 50 nM.

On to `CC(C)C[C@@H](CO)NC(=O)c1c(-c2ccsc2)nc2c(C(=O)NCc3ccc(-c4ccncc4)nc3)cccn12` [Compound 307], for which the IC50 in assay [3] (setting [4]) is 6 to 100 nM and 6 to 20 nM; in assay [1], 4 to 46 nM; in assay [2], 9 to 50 nM.

With `Cc1ccn(-c2ccc(CNC(=O)c3cccn4c(C(=O)N[C@H](CO)CC(C)C)c(-c5ccsc5)nc34)cn2)n1` [Compound 323], the IC50 is 6 to 100 nM in assay [3] (setting [4]), 4 to 46 nM in assay [1] and 9 to 50 nM in assay [2].

For the compound `Cc1cc(C(=O)NCc2ccc3nc(N)sc3c2)c2nc(-c3ccsc3)c(C(=O)N[C@@H](CO)CC(C)C)n2c1` [Compound 350], the IC50 in assay [1] was 1070 to 11500 nM; in assay [2] it was 16100 nM.

Values taken from patent US20100298314A1, “NOVEL JNK INHIBITORS” (Schering Corporation, priority 2006, published 2010).
